In article PMC10916551, “NNMT/1‐MNA Promote Cell‐Cycle Progression of Breast Cancer by Targeting UBC12/Cullin‐1‐Mediated Degradation of P27 Proteins” (Advanced Science, 2023):

Biological target: T1, UBC12 (Homo sapiens, UniProt P61081)
T1 construct: gene UBE2M; amine-coupled to CM5 chip
T1 sequence (P61081 1-183): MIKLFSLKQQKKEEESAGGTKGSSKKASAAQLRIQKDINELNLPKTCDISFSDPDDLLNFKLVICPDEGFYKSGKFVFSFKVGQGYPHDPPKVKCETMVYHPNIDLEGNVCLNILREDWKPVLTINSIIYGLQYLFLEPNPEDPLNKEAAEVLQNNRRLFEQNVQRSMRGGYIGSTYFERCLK
Assay: SPR (Biacore T200), UBC12 immobilised on CM5 chip
Type: binding

For `C[n+]1cccc(C(N)=O)c1` [1-MNA], which Kd is on record?
Its Kd is 168 nM.
